In one data set the test system is Daudi cells. The experiment in a line: XTT cell proliferation assay. The class given is cell-based. To be noted: 16 h. How it is done: (§1) Cell proliferation was determined by the XTT viability assay in 96-well plates, based on the reduction of tetrazolium salt to soluble formazan compounds by living cells. Cells (10,000-15,000 cells/well) were seeded in a 96-well plate. After 16 h incubation with various concentrations of 6-MP, 6-MPR and their S-allylthio-derivatives, 50 μl of XTT/PMS mixture (50 μM PMS, 0.1% XTT in medium) was added onto the cells. After an incubation period of 3-4 h at 37° C. the absorbance of the samples was measured in an ELISA Reader at 450 nm. SDS (1%, 10 μl/well) was added to reference wells before adding the XTT/PMS solution.
(§2) The inhibitory effects of the various prodrugs on Daudi leukemia cell and on monolayer N87 cells were compared. […] XTT was added to the wells for 3 h at 37° C. Cell viability was monitored using an ELISA reader at 450 nm, as described in Materials and Methods.

Another data set relates to N87 cells. Put plainly: XTT cell proliferation assay. The following applies: 16 h. The class given is cell-based, human. As to the method: as §1, §2
A further data set relates to U937. The experiment in a line: Anti-proliferative concentration IC50 (Table 2). The class given is cell-based, human. To be noted: U937, 16 h, tested at 0-100 μM, read-out: Anti-proferative concentration - IC50 (mean ± SE). How it is done:
as §1
(§3) The results of viability and proliferation were expressed as mean values±SD (n=3-6). For each cell line, the results were analyzed using two-way analysis of variance (ANOVA) followed by Bonferroni's posttest for the factors of the drugs used and their various concentrations, considering p<0.05 as significant. IC50 values (mean±SEM) were obtained from the linear range of the viability curve versus drug concentration (XTT assay).
(§4) In particular, cell in suspension, namely, Daudi, HL-60, U937, Molt-4, Jurkat and B-CLL, were tested at prodrug concentration of 0-100 μM, and monolayer cells, namely, Hela HtTA-1, MDR HT-29 and N87, were tested at prodrug concentration of 0-200 μM. in both cases, cell viability was determined by trypan blue dye exclusion assay. Data are presented in Table 2 hereinbelow for 6MP derivatives-treated for 16 h.

In the next data set the test system is Jurkat. The experiment in a line: Anti-proliferative concentration IC50 (Table 2). Type of data set: cell-based, human. The following applies: 16 h, tested at 0-100 μM, read-out: Anti-proferative concentration - IC50 (mean ± SE). How it is done:
as §1, §3, §4

The next data set has as its system Molt-4. Put plainly: Anti-proliferative concentration IC50 (Table 2). The class given is cell-based. The following applies: Molt-4, 16 h, tested at 0-100 μM, read-out: Anti-proferative concentration - IC50 (mean ± SE). How it is done:
as §1, §3, §4

The test system of data set [1] is human peripheral blood mononuclear cells (PBMCs). To be noted: after 4 days of treatment, read-out: IC50, T-cell mitogen-induced blastogenesis; cited from earlier work.
The test system of a further data set is B-CLL cells. The following applies: 48 h, read-out: calculated IC50 for allicin induced-apoptosis; cited from earlier work.
Another data set concerns HL-60. The experiment in a line: Anti-proliferative concentration IC50 (Table 2). The class given is cell-based, human. The following applies: HL-60, 16 h, tested at 0-100 μM, read-out: Anti-proferative concentration - IC50 (mean ± SE). As to the method:
as §1, §3, §4

The subject of the next data set is Hela. Put plainly: Anti-proliferative concentration IC50 (Table 2). The class given is cell-based, human. The following applies: 16 h, tested at 0-200 μM, read-out: Anti-proferative concentration - IC50 (mean ± SE). As to the method:
as §1, §3, §4

A further data set deals with N87. The experiment in a line: Anti-proliferative concentration IC50 (Table 2). Type of data set: cell-based, human. To be noted: N87, 16 h, tested at 0-200 μM, read-out: Anti-proferative concentration - IC50 (mean ± SE). How it is done:
as §1, §3, §4

The test system of the next data set is MDR HT-29. The experiment in a line: Anti-proliferative concentration IC50 (Table 2). The class given is cell-based, human. To be noted: MDR HT-29, 16 h, tested at 0-200 μM, read-out: Anti-proferative concentration - IC50 (mean ± SE). As to the method: as §1, §3, §4
For the next data set, the system named is Daudi. The experiment in a line: Anti-proliferative concentration IC50 (Table 2). The class given is cell-based. To be noted: 16 h, tested at 0-100 μM, read-out: Anti-proferative concentration - IC50 (mean ± SE). How it is done: as §1, §3, §4

We go through four compounds from US20100069319A1, “Mercaptopurine derivatives and uses thereof” (priority 2007, published 2010).

Where two headings read alike, the source gives them in different places. Bounds are passed on as bounds.

Consider `OC[C@H]1O[C@@H](n2cnc3c(S)ncnc32)[C@H](O)[C@@H]1O` [6-MPR, 6-mercaptopurine riboside, reference compound], for which the “cell proliferation” value with Daudi cells (0-100 μM) is on record as “no significant loss of cell proliferation”; in the data set on N87 cells (N87, 0-100 μM) it was “no significant loss of cell proliferation”. Also, in the data set with N87 cells (N87, 150 μM), the “proliferation (residual)” value is reported as around 75%. The IC50 was above 200 µM in the data set with U937 (Homo sapiens, U-937); 99 ± 11.9 µM in the data set with Jurkat (Homo sapiens); 24.8 ± 2.5 µM in the data set with Molt-4 (Homo sapiens).
As for `Cn1cnc([N+](=O)[O-])c1Sc1ncnc2nc[nH]c12` [AZ, azathioprine], in data set [1], the IC50 is 0.23 ± 0.231 µM.
Take `C=CCS[S+]([O-])CC=C` (stereo not drawn) [Allicin, reference compound]: the IC50 in the data set on B-CLL cells was 0.02 µM; in the data set with HL-60 (Homo sapiens) it was 5.5 ± 0.6 µM; in the data set on U937 (Homo sapiens, U-937) it was 19.7 ± 2.1 µM; with Hela (Homo sapiens), 104 ± 10.2 µM; with N87 (Homo sapiens), 16.8 ± 3.3 µM; in the data set on MDR HT-29 (Homo sapiens), 83.8 ± 7.8 µM. The IC50 with Daudi (Homo sapiens) was 35.3 ± 4.2 µM.
`C=CCSSc1ncnc2c1ncn2[C@@H]1O[C@H](CO)[C@@H](O)[C@H]1O` [SA-6MPR, S-allylthio-6-mercaptopurine 9-riboside]: the residual proliferation with Daudi cells (50 μM) is 60%; in the data set with Daudi cells (100 μM), 25%. Moreover, the “residual proliferation / viability” value in the data set on N87 cells (N87, 50 μM) was “about 70%”. Moreover, in the data set on N87 cells (N87, 100 μM), the residual viability is around 55%. For the same compound, the “proliferation” value in the data set on N87 cells (N87, 150 μM) is on record as “complete loss of proliferation”. Besides, the IC50 was 86.1 ± 9.5 µM in the data set on HL-60; 113 ± 10.9 µM with U937; 69.1 ± 7.5 µM in the data set on Jurkat; above 200 µM in the data set with Hela; 120 ± 15.6 µM in the data set on N87; above 200 µM in the data set with MDR HT-29. Further, the IC50 with Molt-4 was determined as 16.9 ± 2.3 µM; with Daudi, 70.8 ± 7.8 µM.
